In patent US20070031511A1, “Method of treatment” (priority 2003, published 2007):
Like-named read-outs stand apart in the source and are kept apart here.

Experiments:
[1] = Quenching of peptide tryptophan fluorescence by ferric ions (stoichiometry, apparent Kd); assay type: binding; details: mean ± S.E.
Method in brief: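 Ferric ions titrated into peptide in 10 mM sodium acetate pH 4.0, 100 mM NaCl, 0.005% Tween 20; Trp fluorescence quenching read at ex 290/em 345 nm. Stoichiometry and apparent Kd from linear regression of Cs/fa = pCa + Kd/(1−fa); means ±S.E. of independent experiments.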

CCK-2 receptor = target: T1, CCK-2 receptor (Homo sapiens, UniProt P32239); assay: Gamide-stimulated inositol phosphate production in COS-7 cells transfected with the CCK-2 receptor; assay type: cell-based; design: COS-7 cells transiently transfected with CCK-2 receptor cDNA; expressed in transfected cells; host or cells: COS-7
T1 sequence (P32239 1-447): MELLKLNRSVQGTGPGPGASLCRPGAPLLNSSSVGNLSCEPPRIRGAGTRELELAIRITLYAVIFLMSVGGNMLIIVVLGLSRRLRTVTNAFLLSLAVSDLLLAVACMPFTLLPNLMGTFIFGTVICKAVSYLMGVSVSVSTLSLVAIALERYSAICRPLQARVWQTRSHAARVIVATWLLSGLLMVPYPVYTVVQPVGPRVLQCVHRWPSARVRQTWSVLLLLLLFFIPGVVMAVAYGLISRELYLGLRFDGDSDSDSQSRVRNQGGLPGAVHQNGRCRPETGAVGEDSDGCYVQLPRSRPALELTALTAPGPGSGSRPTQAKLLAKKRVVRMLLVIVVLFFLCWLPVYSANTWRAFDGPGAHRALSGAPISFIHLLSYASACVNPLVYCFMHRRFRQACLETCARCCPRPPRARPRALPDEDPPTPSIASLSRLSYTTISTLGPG
Description: Intracellular inositol phosphate production was determined as described previously (Qian et al, 1993). IMGE-5 cells (10^5 cells/ml) were plated in 24-multiwell culture plates in DMEM supplemented with 10% FBS, 200 IU/ml penicillin and 200 μg/ml streptomycin. 24 h later, cells were incubated with DMEM supplemented with antibiotics and Myo-[2-^3H]inositol (2.5 μCi/well) and shifted to 39° C. for 16 h. Cells were then washed with pre-warmed DMEM and incubated (20-30 minutes, 37° C.) with DMEM supplemented with 20 mM LiCl. Loaded cells were then washed in 1 ml of IP buffer (135 mM NaCl, 20 mM N-(2-hydroxyethyl)piperazine-N′-(2-ethanesulfonic acid), 2 mM CaCl2, 1.2 mM MgSO4, 1 mM ethylene glycol-bis(2-aminoethylether)-N,N,N′,N′-tetraacetic acid, 10 mM LiCl, and 0.5% bovine serum albumin, pH 7.45) and incubated with or without agonist in a final volume of 0.5 ml of IP buffer. After 1-h incubation at 37° C., the reaction was stopped by removing the incubation medium and adding 1 ml of a mixture of ethanol/HCl (2000:1; v/v). One ml of each aliquot was applied to a column containing 1.6 ml of a 1:2 (v/v) Dowex AG-1-X8 anion exchange resin in distilled water. The columns were washed with 4 ml of distilled water, followed by 4 ml of 40 mM HCOONH4, and inositol phosphates were eluted with 4 ml of 1 M HCOONH4. The radioactivity of each eluate was counted after addition of Complete phase combining system solution (Amersham, UK). For the positive control, IMGE-5 cells were incubated with a combination of 30 mM NaF and 10 μM AlCl3 under the same experimental conditions.
Gamide-stimulated inositol phosphate production was measured in COS-7 cells transfected with the CCK-2 receptor. […] Bismuth ions alone had no effect on inositol phosphate production in CCK-2 receptor-transfected COS-7 cells and HT29 cells, even at the highest concentration tested.
We then investigated the role of the individual glutamates in biological activity. The effects of the mutants GamideE7A and GamideE8,9A on inositol phosphate production in COS-7 cells transiently transfected with the CCK-2 receptor were compared.

[2] = system: AGS gastric carcinoma cells; assay: AGS cell proliferation, MTT assay; assay type: cell-based, human; details: treatment alone: 10 nM Ggly; 32 mol/mol Bi without Ggly; fetal calf serum positive control
rectal mucosa = assay: Proliferation in the rectal mucosa of rectally defunctioned rats (metaphase-arrested cells); assay type: in vivo; details: colloidal bismuth subcitrate 135 mg/kg/12 hours oral gavage 5 days per week, 4 weeks; Ggly 2.5 nmol/kg/hr
Description: DFO (400 mg/kg) was administered intraperitoneally thrice weekly, and bismuth ions were administered as colloidal bismuth subcitrate (135 mg/kg/12 hours) by oral gavage 5 days per week. After 4 weeks, the rats were injected with vincristine to arrest cycling cells in metaphase, and sacrificed 3 hrs later. Crypt heights in the rectal mucosa, and the number of metaphase arrested cells per crypt, were then determined microscopically.

| Kd ([1]; pH 4.0, read-out: Kd (μM) of ferric ion binding (amidated gastrin17 and related peptides)) [µM] | Kd ([1]; pH 4.0, model with two identical independent binding sites, read-out: Ferric Kd) [µM] | Increase in inositol phosphate production (CCK-2 receptor; COS-7 cells transfected with the CCK-2 receptor, 10 μM AlF4−, 10 nM Gamide) [fold] | Effect on Gamide-induced inositol phosphate production (CCK-2 receptor; 2, 8, and 32 moles Bi3+/mole Gamide, 10 nM Gamide) | Effect of bismuth ions alone on inositol phosphate production (CCK-2 receptor; CCK-2 receptor-transfected COS-7 cells, highest concentration tested) | Kd ([1]; 10 mM sodium acetate pH 4.0, 100 mM NaCl, 0.005% Tween 20, read-out: Kd (μM), apparent dissociation constant for ferric ions) [µM] | Compound | Stimulation of inositol phosphate production (CCK-2 receptor; 10 nM peptide) | Mean Response ± SEM (% Control), proliferation of AGS cells [2] [% Control] | Effect on stimulation of proliferation of the rectal mucosa by Ggly (rectal mucosa) |
| --- | --- | --- | --- | --- | --- | --- | --- | --- | --- |
| 0.2 ± 0.14 | 0.2 ± 0.1 | 4 | – | – | – | CSCC[C@H](NC(=O)[C@H](Cc1c[nH]c2ccccc12)NC(=O)CNC(=O)[C@H](Cc1ccc(O)cc1)NC(=O)[C@H](C)NC(=O)[C@H](CCC(=O)O)NC(=O)[C@H](CCC(=O)O)NC(=O)[C@H](CCC(=O)O)NC(=O)[C@H](CCC(=O)O)NC(=O)[C@H](CCC(=O)O)NC(=O)[C@H](CC(C)C)NC(=O)[C@H](Cc1c[nH]c2ccccc12)NC(=O)[C@@H]1CCCN1C(=O)CNC(=O)[C@@H]1CCC(=O)N1)C(=O)N[C@@H](CC(=O)O)C(=O)N[C@@H](Cc1ccccc1)C(N)=O [Gamide] | No significant difference was observed in the extent of stimulation | – | – |
| – | – | – | no significant effect | no effect | – | [Bi+3] [bismuth ions] | – | 102.2 ± 4.2 | completely abolished |
| – | – | – | – | – | 0.18 ± 0.04 | Ggly: glycine-extended gastrin17, 18 amino acid non-amidated gastrin, SEQ ID NO:4, residues 55-72 of progastrin (XGPWLEEEEEAYGWMDFG; (1)..(1) pyroglutamate; listed as Homo sapiens) | – | 126.0 ± 2.3 | – |
